The values below come from US20060079503A1, “Thiazolidinones and the use therof as polo-like kinase inhibitors” (SCHERING AKTIENGESELLSCHAFT, priority 2002, published 2006).

In one experiment the target is T1, Recombinant human Plk-1 (6×His) (Homo sapiens, UniProt P53350).
T1 construct: 6×His; made in house; host or cells: baculovirus-infected insect cells (Hi5)
T1 sequence (P53350 whole entry): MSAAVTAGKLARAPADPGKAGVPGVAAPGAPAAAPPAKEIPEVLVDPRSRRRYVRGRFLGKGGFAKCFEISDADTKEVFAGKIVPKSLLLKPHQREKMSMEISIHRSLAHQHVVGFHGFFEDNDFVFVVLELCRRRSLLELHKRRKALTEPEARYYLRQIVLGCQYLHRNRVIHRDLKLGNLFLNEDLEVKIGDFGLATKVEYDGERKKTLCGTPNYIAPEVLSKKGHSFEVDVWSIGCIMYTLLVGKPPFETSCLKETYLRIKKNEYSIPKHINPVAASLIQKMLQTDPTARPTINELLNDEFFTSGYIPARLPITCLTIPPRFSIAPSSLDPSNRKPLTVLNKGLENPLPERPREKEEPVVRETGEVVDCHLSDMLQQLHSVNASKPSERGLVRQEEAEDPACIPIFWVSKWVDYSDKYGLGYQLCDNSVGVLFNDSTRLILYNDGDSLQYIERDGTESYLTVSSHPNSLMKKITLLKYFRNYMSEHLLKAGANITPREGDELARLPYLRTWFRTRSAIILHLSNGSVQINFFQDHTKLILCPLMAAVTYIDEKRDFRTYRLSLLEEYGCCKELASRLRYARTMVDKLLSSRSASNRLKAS
Kind of experiment: PLK enzyme assay (33P-γ-ATP incorporation into biotinylated casein, SPA beads). The format is biochemical. The following applies: 10 ng PLK enzyme, 90 minutes at room temperature, 0.5 μmol of ATP, casein substrate; read-out: Inhibition of PLK-1 IC50. Here is the method:
Recombinant human Plk-1 (6×His) was purified from baculovirus-infected insect cells (Hi5).
10 ng of (produced in a recombinant manner and purified) PLK enzyme is incubated for 90 minutes at room temperature with biotinylated casein and 33P-γ-ATP as a substrate in a volume of 15 μl in 384-well Greiner small-volume microtiter plates (final concentrations in the buffer: 660 ng/ml of PLK; 0.7 μmol of casein, 0.5 μmol of ATP incl. 400 nCi/ml of 33P-γ-ATP; 10 mmol of MgCl2, 1 mmol of MnCl2; 0.01% NP40; 1 mmol of DTT, protease inhibitors; 0.1 mmol of Na2VO3 in 50 mmol of HEPES, pH 7.5). To complete the reaction, 5 μl of stop solution (500 μmol of ATP; 500 mmol of EDTA; 1% Triton X100; 100 mg/ml of streptavidin-coated SPA beads in PBS) is added. After the microtiter plate is sealed by film, the beads are sedimented by centrifuging (10 minutes, 1500 rpm). The incorporation of 33P-γ-ATP in casein is intended as a measurement of enzyme activity by β-counting.
Test substances are used in various concentrations (0 μmol, as well as in the range of 0.01-30 μmol). The final concentration of the solvent dimethyl sulfoxide is 1.5% in all batches.
Consider `CCOC(=O)C(C#N)=c1sc(=CNc2ccc(C(N)=O)cc2)c(=O)n1CC` (mixture of isomers) [Example 10, (E or Z)-{5-(E/Z)-[(4-Carbamoyl-phenylamino)-methylene]-3-ethyl-4-oxo-thiazolidin-2-ylidene}-cyanoacetic acid ethyl ester], for which the IC50 is 200 nM.
The same measure, in the same setting: in the case of `CCOC(=O)C(C#N)=c1sc(=CN)c(=O)n1CC` (mixture of isomers) [Example 11, (E or Z)-(5-(E/Z)-Aminomethylene-3-ethyl-4-oxo-thiazolidin-2-ylidene)-cyanoacetic acid ethyl ester] it was 400 nM; in that of `CCn1c(=C(C#N)C(=O)O)sc(=CNc2ccccc2)c1=O` (mixture of isomers) [Example 12, (E or Z)-Cyano-(3-ethyl-4-oxo-5-(E/Z)-phenylaminomethylene-thiazolidin-2-ylidene)-acetic acid], 100 nM; in that of `CCn1c(=CC#N)sc(=CNc2ccccc2)c1=O` (mixture of isomers) [Example 21, (E or Z)-(3-Ethyl-4-oxo-5-(E/Z)-phenylaminomethylene-thiazolidin-2-ylidene)-acetonitrile], 230 nM.
As for `CCOC(=O)C(C#N)=c1sc(=CNc2ccc(S(C)(=O)=O)cc2)c(=O)n1CC` [Example 22], the IC50 worked out at 510 nM.
Same read-out and setting: for `CCOC(=O)C(C#N)=c1sc(=CNc2cccc(C(=O)O)c2)c(=O)n1CC` [Example 24] the value was 230 nM; for `CCOC(=O)C(C#N)=c1sc(=CNc2ccccc2C(=O)O)c(=O)n1CC` [Example 26], 6300 nM; for `CCOC(=O)C(C#N)=c1sc(=CNc2cc(C(=O)O)ccc2O)c(=O)n1CC` [Example 28], 2300 nM.
Still for that read-out and setting: in the case of `CCOC(=O)C(C#N)=c1sc(=CNc2ccc(C(=O)O)cc2O)c(=O)n1CC` [Example 30] it was 250 nM.
Same read-out and setting: for `CCOC(=O)C(C#N)=c1sc(=CNc2ccc(Cl)cc2C(=O)O)c(=O)n1CC` [Example 31] the value was 1900 nM.
On to `CCOC(=O)C(C#N)=c1sc(=CNc2cc(Cl)ccc2C(=O)O)c(=O)n1CC` [Example 32], for which the IC50 came out at 1700 nM.
Consider `CCOC(=O)C(C#N)=c1sc(=CNc2ccc(Cl)c(C(=O)O)c2)c(=O)n1CC` [Example 33], for which the IC50 was 420 nM.
On the same count and under the same terms, for `CCOC(=O)C(C#N)=c1sc(=CNc2ccc(F)cc2C(=O)O)c(=O)n1CC` [Example 35] the value was 2800 nM.
For the compound `CCOC(=O)C(C#N)=c1sc(=CNc2ccc(Br)cc2C(=O)O)c(=O)n1CC` [Example 36], the IC50 was found to be 1800 nM.
The same measure, in the same setting: for `CCOC(=O)C(C#N)=c1sc(=CNc2cc(F)c(F)cc2C(=O)O)c(=O)n1CC` [Example 37] the value was 3500 nM; for `CCOC(=O)C(C#N)=c1sc(=CNc2ccc(C)cc2C(=O)O)c(=O)n1CC` [Example 38], 3000 nM; for `CCOC(=O)C(C#N)=c1sc(=CNc2cccc(C)c2C(=O)O)c(=O)n1CC` [Example 39], 5900 nM.
Still for that read-out and setting: for `CCOC(=O)C(C#N)=c1sc(=CNc2ccc(C(=O)O)cc2C)c(=O)n1CC` [Example 40] the value was 1700 nM.
On the same count and under the same terms, for `CCOC(=O)C(C#N)=c1sc(=CNC(=O)Nc2ccccc2)c(=O)n1CC` [Example 45] the value was 680 nM; for `CCOC(=O)C(C#N)=c1sc(=CNc2cccc(C(N)=O)c2)c(=O)n1CC` [Example 48], 270 nM.
Consider `CCOC(=O)C(C#N)=c1sc(=CNc2ccc(S(N)(=O)=O)cc2)c(=O)n1CC` [Example 50], for which the IC50 was 240 nM.
Regarding `CCOC(=O)C(C#N)=c1sc(=CNc2cccc(C(=O)NC)c2)c(=O)n1CC` [Example 52], the IC50 was 260 nM.
Regarding `CCOC(=O)C(C#N)=c1sc(=CNc2cccc(S(N)(=O)=O)c2)c(=O)n1CC` [Example 53], the IC50 turned out to be 460 nM.
With `CCOC(=O)C(C#N)=c1sc(=CNc2ccc(NC(C)=O)cc2)c(=O)n1CC` [Example 58], the IC50 was found to be 270 nM.
With `CCOC(=O)C(C#N)=c1sc(=CNc2cccc(NC(C)=O)c2)c(=O)n1CC` [Example 59], the IC50 turned out to be 180 nM.
Same read-out and setting: in the case of `CCOC(=O)C(C#N)=c1sc(=CNc2cccc(CO)c2)c(=O)n1CC` [Example 60] it was 290 nM.

A further experiment has as its system human MaTu breast tumor cells. In words: Proliferation assay (crystal violet staining). The format is cell-based. Conditions: 96 h, incubated for 4 days with test substances, read-out: Inhibition of the Tumor Cell Proliferation (MaTu) IC50. On the procedure:
Cultivated human MaTu breast tumor cells were flattened out at a density of 5000 cells/measuring point in a 96-well multititer plate in […] of the corresponding growth medium. After 24 hours, the cells of one plate (zero-point plate) were colored with crystal violet (see below), while the medium of the other plates was replaced by fresh culture medium […], to which the test substances were added in various concentrations (0 μm, as well as in the range of 0.01-30 μm; the final concentration of the solvent dimethyl sulfoxide was 0.5%). The cells were incubated for 4 days in the presence of test substances. The cell proliferation was determined by coloring the cells with crystal violet: the cells were fixed by adding 20 μl/measuring point of an 11% glutaric aldehyde solution for 15 minutes at room temperature. After three washing cycles of the fixed cells with water, the plates were dried at room temperature. The cells were colored by adding 100 μl/measuring point of a 0.1% crystal violet solution (pH was set at 3 by adding acetic acid). After three washing cycles of the colored cells with water, the plates were dried at room temperature. The dye was dissolved by adding 100 μl/measuring point of a 10% acetic acid solution. The extinction was determined by photometry at a wavelength of 595 nm. The change of cell growth, in percent, was calculated by standardization of the measured values to the extinction values of the zero-point plate (=0%) and the extinction of the untreated (0 μm) cells (=100%).
Regarding `CCOC(=O)C(C#N)=c1sc(=CNc2ccc(C(N)=O)cc2)c(=O)n1CC` (mixture of isomers) [Example 10, (E or Z)-{5-(E/Z)-[(4-Carbamoyl-phenylamino)-methylene]-3-ethyl-4-oxo-thiazolidin-2-ylidene}-cyanoacetic acid ethyl ester], the IC50 was determined as 4000 nM.
Same read-out and setting: for `CCOC(=O)C(C#N)=c1sc(=CN)c(=O)n1CC` (mixture of isomers) [Example 11, (E or Z)-(5-(E/Z)-Aminomethylene-3-ethyl-4-oxo-thiazolidin-2-ylidene)-cyanoacetic acid ethyl ester] the value was 15000 nM.
The same measure, in the same setting: in the case of `CCn1c(=C(C#N)C(=O)O)sc(=CNc2ccccc2)c1=O` (mixture of isomers) [Example 12, (E or Z)-Cyano-(3-ethyl-4-oxo-5-(E/Z)-phenylaminomethylene-thiazolidin-2-ylidene)-acetic acid] it was 2000 nM.
